Values joined by “and” are separate entries in the source; they are usually repeats but may differ in a detail not shown here. Equal entries are not always repeated.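 Step 1: Grow cells in 96-well plates. Step 2: Expose to compound for 48 hours at 5 concentrations. Step 3: Interpolate endpoints linearly; if unreached, use highest concentration. Here, GI50 denotes the concentration required for 50% inhibition of growth. TGI: total growth inhibition.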
Legend:
Experiment in all cases: growth of human tumour cells (NCI), 48 h
M14 melanoma = system: M14 melanoma
UO-31 renal = system: UO-31 renal
SW-620 colon = system: SW-620 colon
A549 NSCLC = system: A549 NSCLC
DU-145 prostate = system: DU-145 prostate
SF-295 CNS = system: SF-295 CNS
UACC-257 melanoma = system: UACC-257 melanoma
TK-10 renal = system: TK-10 renal
IGROV1 ovarian = system: IGROV1 ovarian
SK-OV-3 ovarian = system: SK-OV-3 ovarian

SMILES | GI50 (M14 melanoma) | TGI (M14 melanoma) | GI50 (UO-31 renal) | TGI (UO-31 renal) | GI50 (SW-620 colon) | TGI (SW-620 colon) | GI50 (A549 NSCLC) | TGI (A549 NSCLC) | GI50 (DU-145 prostate) | TGI (DU-145 prostate) | GI50 (SF-295 CNS) | TGI (SF-295 CNS) | GI50 (UACC-257 melanoma) | TGI (UACC-257 melanoma) | GI50 (TK-10 renal) | TGI (TK-10 renal) | GI50 (IGROV1 ovarian) | TGI (IGROV1 ovarian) | GI50 (SK-OV-3 ovarian) | TGI (SK-OV-3 ovarian)
OCc1ccc(-c2csc(-c3ccc(CO)o3)c2)o1 | 30.6 µM | > 100 µM | 49.7 µM | > 100 µM | 35.9 µM | > 100 µM | 15.3 µM | 64.9 µM | 37.7 µM | > 100 µM | 13.9 µM | > 100 µM | 1.56 µM | 4.75 µM | 0.64 µM | > 37.1 µM | 0.926 µM | > 100 µM | 26.1 µM | > 100 µM
COc1cc2c(NCCCCCO)ncnc2c(OC)c1OC | – | > 100 µM | – | > 100 µM | – | > 100 µM | – | > 100 µM | – | > 100 µM | – | > 100 µM | – | > 100 µM | – | > 100 µM | – | > 100 µM | – | > 100 µM
O=C(Cn1c(C(=O)c2ccc(Cl)cc2)nc(-c2ccc(Cl)cc2)c1-c1ccc(Cl)cc1)c1ccccc1 | > 100 µM | > 100 µM | > 100 µM | > 100 µM | > 100 µM | > 100 µM | > 100 µM | > 100 µM | > 100 µM | > 100 µM | > 100 µM | > 100 µM | > 100 µM | > 100 µM | > 100 µM | > 100 µM | > 100 µM | > 100 µM | > 100 µM | > 100 µM
COC(=O)c1ccc2nc(-c3cc4ccccc4n3C)n(CCCCOc3cc4c(cc3OC)C(=O)N3CCC[C@H]3C=N4)c2c1 | 0.713 µM | 2.07 µM | 0.389 µM | 2.19 µM | 0.389 µM | 1.75 µM | 1.5 µM | 10.3 µM | 0.234 µM | 0.564 µM | 0.667 µM | 4.85 µM | 1.17 µM | 3.78 µM | 0.43 µM | 3.29 µM | 0.254 µM | 0.889 µM | 1.86 µM | 4.67 µM
CCn1c(-c2nonc2N)nc2c(C#CC(C)(C)O)ncc(OC3CCNCC3)c21 | 21.6 µM | > 25 µM | > 25 µM | > 25 µM | 10.3 µM | > 25 µM | > 25 µM | > 25 µM | 10.4 µM | > 25 µM | 9.09 µM | > 25 µM | > 25 µM | > 25 µM | 6.6 µM | > 25 µM | 0.696 µM | > 25 µM | 3.86 µM | > 25 µM
COc1cc(-c2cc3ncccc3c3nc(OCCN(C)C)c4cccnc4c23)cc(OC)c1OC | 0.485 µM | 10.4 µM | 0.28 µM | 1.32 µM | 0.324 µM | 15.2 µM | 0.346 µM | 1.54 µM | 0.5 µM | > 100 µM | 0.533 µM | 2.39 µM | 0.567 µM | 4.06 µM | 0.294 µM | 1.39 µM | 0.466 µM | 1.99 µM | 0.458 µM | 2.18 µM
Fc1cc(F)c(F)c(S)c1F | – | > 100 µM | – | > 100 µM | – | > 100 µM | – | > 100 µM | – | > 100 µM | – | > 100 µM | – | > 100 µM | – | > 100 µM | – | > 100 µM | – | > 100 µM
Cn1cc(C2=C(c3c4n(c5ccccc35)CCNC4)C(=O)NC2=O)c2ccccc21 | 12.4 µM | > 25 µM | 4.53 µM | > 22.2 µM | 6.92 µM | > 25 µM | 11.8 µM | > 25 µM | 12.6 µM | > 25 µM | 5.69 µM | > 25 µM | > 11.4 µM | > 20.2 µM | 11.3 µM | > 25 µM | > 10 µM | > 21.5 µM | 8.84 µM | > 25 µM
CNC(=O)c1nn(C)c2c1C(C)(C)Cc1cnc(Nc3cccc(N4CCN(C)CC4)c3)nc1-2 | 0.204 µM | 11.8 µM | 0.0881 µM | 1.96 µM | 0.287 µM | 22.4 µM | 0.34 µM | 13.8 µM | 0.686 µM | 14 µM | 0.332 µM | 6.84 µM | 0.386 µM | 7.09 µM | 0.271 µM | 24.4 µM | 0.166 µM | 11.6 µM | 0.21 µM | 7.44 µM
N#CC(C#N)=NNc1ccc2cn[nH]c2c1 | – | > 100 µM | – | 28.1 µM | – | > 100 µM | – | > 100 µM | – | 82.9 µM | – | > 100 µM | – | 60.2 µM | – | 76.1 µM | – | > 100 µM | – | > 100 µM
CC1=C/C=C/C(=O)O[C@@H]([C@H](C)[C@H](O)[C@@H](C)NC(=O)C(C)C)[C@H](C)/C=C/C(C)=C/[C@H]2C=CCC[C@@]2(C)\C=C\1 | 0.0377 µM and 0.0293 µM | 0.216 µM and 0.125 µM | 0.244 µM and 0.396 µM | 7.85 µM | 0.705 µM and 0.303 µM | 8.9 µM | 1.83 µM and 0.328 µM | 13.2 µM | 4.64 µM and 0.652 µM | 8.98 µM | 0.0264 µM | 7.5 µM | – | 13.3 µM | 6.12 µM | 19 µM | 0.603 µM and 0.189 µM | 10.7 µM | 3.09 µM and 0.872 µM | > 42.3 µM
CNS(=O)(=O)OCC1OC(n2cnc3cncnc32)C(O)C1O (centres undefined) | > 100 µM | > 100 µM | > 100 µM | > 100 µM | > 100 µM | > 100 µM | > 100 µM | > 100 µM | > 100 µM | > 100 µM | > 100 µM | > 100 µM | > 100 µM | > 100 µM | > 100 µM | > 100 µM | > 100 µM | > 100 µM | > 100 µM | > 100 µM
C[C@@H](N)COc1ccc(-c2cnc3ccc(N[C@H](C)c4cccc(F)c4)nn23)cc1 | 1.49 µM | 3 µM | 1.94 µM | 7.81 µM | 1.55 µM | 3.44 µM | 1.53 µM | 3.82 µM | 3.01 µM | 11.4 µM | 1.8 µM | 4.01 µM | 1.62 µM | 3.11 µM | 1.75 µM | 8.22 µM | 2.18 µM | 6.23 µM | 5.05 µM | 16.9 µM

Source: PubChem BioAssay (NCI)
